Assay results reported in ChEMBL document CHEMBL1155038, “Discovery of phosphonic diamide prodrugs and their use for the oral delivery of a series of fructose 1,6-bisphosphatase inhibitors” (J Med Chem, 2008).

Columns and labels:
Rattus norvegicus [1] = assay: Reduction in blood glucose level in fasted Sprague-Dawley rat at <=10 mg/kg, iv relative to control; type: functional; parameters: scale not given: the % may be the effect or the level left
Rattus norvegicus [2] = assay: Bioavailability in fasted Sprague-Dawley rat assessed as urinary excretion of phosphoric acid at 10 to 50 mg/kg, po after 24 hrs by HPLC relative to iv dosed phosphoric acid; type: ADME, organism-based, Urine; details: in vivo
Rattus norvegicus [3] = assay: Reduction in blood glucose level in fasted Sprague-Dawley rat at 30 mg/kg, po relative to control; type: functional; parameters: scale not given: the % may be the effect or the level left
Rattus norvegicus [4] = assay: Reduction in blood glucose level in Sprague-Dawley rat assessed as time of maximum glucose lowering at 30 mg/kg, po; type: functional
Hepatocyte = assay: Drug uptake in cryopreserved human hepatocytes per million cells at 100 uM after 60 mins; type: ADME, cell-based; details: 1 h
[5] = Stability in human liver S9 fractions assessed as prodrug conversion per mg of protein; type: ADME, subcellular, S9 fraction

SMILES	F (Rattus norvegicus [2]) [%]	further results
CC(C)Cc1sc(N)nc1-c1ccc(P(=O)(O)O)o1 [MB-05032]	2	Activity (Rattus norvegicus [1]): >50%
CCOC(=O)C(C)(C)NP(=O)(c1ccc(-c2nc(N)sc2CC(C)C)o1)N1CCOCC1 (configuration not stated)	32	
CCCSc1sc(N)nc1-c1ccc(P(=O)(N[C@@H](C)C(=O)OC(C)C)N[C@@H](C)C(=O)OC(C)C)o1	17	
CCCSc1sc(N)nc1-c1ccc(P(=O)(O)O)o1		Activity (Rattus norvegicus [1]): >50%
CC(C)Cc1sc(N)nc1-c1ccc(P(=O)(NCC(=O)OCc2ccccc2)NCC(=O)OCc2ccccc2)o1	17	
CCCSc1sc(N)nc1-c1ccc(P(=O)(NC(C)(C)C(=O)OCC)NC(C)(C)C(=O)OCC)o1	31	Activity (Rattus norvegicus [3]): 51%; Time (Rattus norvegicus [4]): 2 h
CC(C)Cc1sc(N)nc1-c1ccc(P(=O)(OCOC(=O)OC(C)C)OCOC(=O)OC(C)C)o1	13	
CCCSc1sc(N)nc1-c1ccc(P(=O)(NC2(C(=O)OCC)CCCC2)NC2(C(=O)OCC)CCCC2)o1	49	
CCOC(=O)c1sc(N)nc1-c1ccc(P(=O)(O)O)o1		Activity (Rattus norvegicus [1]): >50%
CCOC(=O)C(C)(C)NP(=O)(NC(C)(C)C(=O)OCC)c1ccc(-c2nc(N)sc2-c2ccccc2)o1	30	Activity (Rattus norvegicus [3]): 25%; Time (Rattus norvegicus [4]): 2 h
CC(C)CNP(=O)(NCC(C)C)c1ccc(-c2nc(N)sc2CC(C)C)o1	0	
CC(C)Cc1sc(N)nc1-c1ccc(P(=O)(OCOC(=O)C(C)(C)C)OCOC(=O)C(C)(C)C)o1	11	
CC(C)Cc1sc(N)nc1-c1ccc(P(=O)(NCC(=O)OC(C)(C)C)NCC(=O)OC(C)(C)C)o1	9	
CCCSc1sc(N)nc1-c1ccc(P(=O)(N[C@@H](COC(C)(C)C)C(=O)OC)N[C@@H](COC(C)(C)C)C(=O)OC)o1	9	
CCOC(=O)c1sc(N)nc1-c1ccc(P(=O)(NC2(C(=O)OCC)CCCC2)NC2(C(=O)OCC)CCCC2)o1	5	
CCCSc1sc(N)nc1-c1ccc(P(=O)(N[C@@H](C)C(=O)OC(C)(C)C)N[C@@H](C)C(=O)OC(C)(C)C)o1	4	
CCOC(=O)C(C)(C)NP(=O)(COCCn1cnc2c(N)ncnc21)NC(C)(C)C(=O)OCC	4	
CSc1sc(N)nc1-c1ccc(P(=O)(O)O)o1		Activity (Rattus norvegicus [1]): >50%
CCCSc1sc(N)nc1-c1ccc(P(=O)(N[C@@H](C)C(=O)OC2CCCCCC2)N[C@@H](C)C(=O)OC2CCCCCC2)o1	12	
CCCCOC(=O)[C@H](C)NP(=O)(N[C@@H](C)C(=O)OCCCC)c1ccc(-c2nc(N)sc2SCCC)o1	2	
Nc1nc(-c2ccc(P(=O)(O)O)o2)c(-c2ccccc2)s1		Activity (Rattus norvegicus [1]): >50%
CCOC(=O)C(C)(C)NP(=O)(NC(C)(C)C(=O)OCC)c1ccc(-c2nc(N)sc2SC)o1	45	Activity (Rattus norvegicus [3]): 80%; Time (Rattus norvegicus [4]): 2 h
CCOC(=O)C1(NP(=O)(NC2(C(=O)OCC)CCCC2)c2ccc(-c3nc(N)sc3CC(C)C)o2)CCCC1	27	Activity (Rattus norvegicus [3]): 20%; Time (Rattus norvegicus [4]): 2 h
CC(C)OC(=O)[C@H](C)NP(=O)(N[C@@H](C)C(=O)OC(C)C)c1ccc(-c2nc(N)sc2-c2ccccc2)o1	23	Activity (Rattus norvegicus [3]): 19%; Time (Rattus norvegicus [4]): 5 h
CCCSc1sc(N)nc1-c1ccc(P(=O)(NC2(C(=O)OCC)CCCCC2)NC2(C(=O)OCC)CCCCC2)o1	1	
CCOC(=O)C(C)(C)NP(=O)(c1ccc(-c2nc(N)sc2CC(C)C)o1)N1CCCC1 (configuration not stated)	37	
COC(=O)CNP(=O)(COCCn1cnc2c(N)ncnc21)NCC(=O)OC	2	
CC(C)Cc1sc(N)nc1-c1ccc(P(=O)(N[C@@H](C)C(=O)OCc2ccccc2)N[C@@H](C)C(=O)OCc2ccccc2)o1	11	

Now from value to molecule, other results behind:

F (Rattus norvegicus [2]) [%]	SMILES	further results
31	CC(C)Cc1sc(N)nc1-c1ccc(P(=O)(N[C@@H](C)C(=O)OC(C)C)N[C@@H](C)C(=O)OC(C)C)o1	Activity (Rattus norvegicus [3]): 63%; Time (Rattus norvegicus [4]): 2 h
28	CCOC(=O)C(C)NP(=O)(NC(C)C(=O)OCC)c1ccc(-c2nc(N)sc2CC(C)C)o1 (mixture of isomers)	Activity (Rattus norvegicus [3]): 52%; Time (Rattus norvegicus [4]): 2 h
23	CCOC(=O)[C@H](C)NP(=O)(N[C@@H](C)C(=O)OCC)c1ccc(-c2nc(N)sc2SC)o1	Activity (Rattus norvegicus [3]): 38%; Time (Rattus norvegicus [4]): 2 h
18	CC(C)Cc1sc(N)nc1-c1ccc(P(=O)(N[C@@H](C)C(=O)OCC(C)(C)C)N[C@@H](C)C(=O)OCC(C)(C)C)o1	
17	CCCSc1sc(N)nc1-c1ccc(P(=O)(N[C@@H](C)C(=O)OCC)N[C@@H](C)C(=O)OCC)o1	
19	CCCOC(=O)[C@H](C)NP(=O)(N[C@@H](C)C(=O)OCCC)c1ccc(-c2nc(N)sc2SCCC)o1	
26	CCOC(=O)CNP(=O)(NCC(=O)OCC)c1ccc(-c2nc(N)sc2CC(C)C)o1	Activity (Rattus norvegicus [3]): 51%; Time (Rattus norvegicus [4]): 2 h
31	CCOC(=O)[C@H](C)NP(=O)(N[C@@H](C)C(=O)OCC)c1ccc(-c2nc(N)sc2-c2ccccc2)o1	
8	CCOC(=O)[C@H](CC)NP(=O)(N[C@@H](CC)C(=O)OCC)c1ccc(-c2nc(N)sc2CC(C)C)o1	
5	CCOC(=O)c1sc(N)nc1-c1ccc(P(=O)(N[C@@H](CC)C(=O)OCC)N[C@@H](CC)C(=O)OCC)o1	
6	CCCSc1sc(N)nc1-c1ccc(P(=O)(N[C@@H](CCC)C(=O)OCC)N[C@@H](CCC)C(=O)OCC)o1	
5	CCOC(=O)[C@H](CSCc1ccccc1)NP(=O)(N[C@@H](CSCc1ccccc1)C(=O)OCC)c1ccc(-c2nc(N)sc2CC(C)C)o1	
6	CCCSc1sc(N)nc1-c1ccc(P(=O)(N[C@@H](CC)C(=O)OCC)N[C@@H](CC)C(=O)OCC)o1	
16	CCCOC(=O)[C@H](C)NP(=O)(N[C@@H](C)C(=O)OCCC)c1ccc(-c2nc(N)sc2CC(C)C)o1	
4	CCC[C@H](NP(=O)(N[C@@H](CCC)C(=O)OCC)c1ccc(-c2nc(N)sc2C(=O)OCC)o1)C(=O)OCC	
47	CCOC(=O)C(C)(C)NP(=O)(NC(C)(C)C(=O)OCC)c1ccc(-c2nc(N)sc2CC(C)C)o1	Activity (Rattus norvegicus [3]): 45%; Time (Rattus norvegicus [4]): 2 h
22	CCOC(=O)[C@H](C)NP(=O)(N[C@@H](C)C(=O)OCC)c1ccc(-c2nc(N)sc2CC(C)C)o1	Drug uptake (Hepatocyte): 7 nmol; Stability [5]: 0.004 nM/min; Activity (Rattus norvegicus [3]): 59%; Time (Rattus norvegicus [4]): 2 h
30	CCOC(=O)c1sc(N)nc1-c1ccc(P(=O)(N[C@@H](C)C(=O)OCC)N[C@@H](C)C(=O)OCC)o1	Activity (Rattus norvegicus [3]): 12%; Time (Rattus norvegicus [4]): 3 h
3	CCOC(=O)[C@H](Cc1ccccc1)NP(=O)(N[C@@H](Cc1ccccc1)C(=O)OCC)c1ccc(-c2nc(N)sc2CC(C)C)o1	
22	COC(=O)[C@@H](C)NP(=O)(N[C@H](C)C(=O)OC)c1ccc(-c2nc(N)sc2CC(C)C)o1	Activity (Rattus norvegicus [3]): 26%; Time (Rattus norvegicus [4]): 2 h
10	CC(C)COC(=O)[C@H](C)NP(=O)(N[C@@H](C)C(=O)OCC(C)C)c1ccc(-c2nc(N)sc2CC(C)C)o1	
3	CCOC(=O)[C@H](CC(C)C)NP(=O)(N[C@@H](CC(C)C)C(=O)OCC)c1ccc(-c2nc(N)sc2CC(C)C)o1	
6	CCOC(=O)c1sc(N)nc1-c1ccc(P(=O)(N[C@H](C(=O)OCC)C(C)C)N[C@H](C(=O)OCC)C(C)C)o1	
7	CCOC(=O)[C@@H](NP(=O)(N[C@H](C(=O)OCC)C(C)C)c1ccc(-c2nc(N)sc2CC(C)C)o1)C(C)C	
6	CCCSc1sc(N)nc1-c1ccc(P(=O)(N[C@H](C(=O)OCC)C(C)C)N[C@H](C(=O)OCC)C(C)C)o1	
